Test results taken from US7161031B2, “Amino-substituted sulfonanilides and derivatives thereof for treating proliferative disorders” (Temple University - Of The Commonwealth System of Higher …, priority 2002, dated 2007).

What was measured:
Assay in all cases: Tumor cell killing, viable cell count by trypan blue exclusion
Type in all cases: cell-based
BT20 tumor cell line = conditions: BT20 cells, viable cells counted 96 hours after treatment
Protocol: (§1) The effect of the amino-substituted sulfonanilides on normal fibroblasts and on tumor cells may be determined by the assay described by Latham et al., Oncogene 12:827–837 (1996). Normal diploid lung human fibroblasts (HFL-1) or tumor cells (e.g., prostate, colorectal, breast, glial, pancreatic, ovarian, lung or leukemic) are plated in 6-well dishes at a cell density of 1.0×10^5 cells per […]. The plated cells are treated 24 hours later with various concentrations of amino-substituted sulfonanilide dissolved in dimethyl sulfoxide (DMSO). The total number of viable cells is determined 96 hours later by trypsinizing the wells and counting the number of viable cells, as determined by trypan blue exclusion, using a hemacytometer. Normal HFL cells are treated with the same compounds under the same conditions of concentration and time. Biological data for compounds of the present invention is shown in Table 5 below in DU145, BT20, DLD1 and H157 tumor cell lines.

DLD1 tumor cell line = conditions: DLD1 cells, viable cells counted 96 hours after treatment
Protocol: as §1

DU145 tumor cell line = conditions: DU145 cells, viable cells counted 96 hours after treatment
Protocol: as §1

H157 tumor cell line = conditions: H157 cells, viable cells counted 96 hours after treatment
Protocol: as §1

Molecule	tumor cell killing activity BT20 (BT20 tumor cell line)	tumor cell killing activity DLD1 (DLD1 tumor cell line)	tumor cell killing activity DU145 (DU145 tumor cell line)	tumor cell killing activity H157 (H157 tumor cell line)
COc1cc(OC)c(/C=C/S(=O)(=O)Nc2ccc(OC)c(NC(=O)CCl)c2)c(OC)c1 [Example 7, (E)-2,4,6-Trimethoxystyryl-N-[(3-chloroacetamido)-4-methoxyphenyl]-sulfonamide]	+ (A (+) in the table indicates that the compound showed tumor cell killing activity at a concentration of less than 20 micromolar)	+ (A (+) in the table indicates that the compound showed tumor cell killing activity at a concentration of less than 20 micromolar)	+ (A (+) in the table indicates that the compound showed tumor cell killing activity at a concentration of less than 20 micromolar)	+ (A (+) in the table indicates that the compound showed tumor cell killing activity at a concentration of less than 20 micromolar)
COc1cc(OC)c(/C=C/S(=O)(=O)Nc2ccc(OC)c(NC(=O)CN3CCN(C)CC3)c2)c(OC)c1 [Example 8, (E)-2,4,6-Trimethoxystyryl-N-[3-(4-methylpiperazinyl)-acetamido-4-methoxyphenyl]sulfonamide]	+ (A (+) in the table indicates that the compound showed tumor cell killing activity at a concentration of less than 20 micromolar)	+ (A (+) in the table indicates that the compound showed tumor cell killing activity at a concentration of less than 20 micromolar)	+ (A (+) in the table indicates that the compound showed tumor cell killing activity at a concentration of less than 20 micromolar)	+ (A (+) in the table indicates that the compound showed tumor cell killing activity at a concentration of less than 20 micromolar)
COc1cc(OC)c(/C=C/S(=O)(=O)Nc2ccc(OC)c(NC(C)=O)c2)c(OC)c1 [Example 2, (E)-2,4,6-Trimethoxystyryl-N-[(3-acetamido)4-methoxyphenyl]-sulfonamide]	+ (A (+) in the table indicates that the compound showed tumor cell killing activity at a concentration of less than 20 micromolar)	+ (A (+) in the table indicates that the compound showed tumor cell killing activity at a concentration of less than 20 micromolar)	+ (A (+) in the table indicates that the compound showed tumor cell killing activity at a concentration of less than 20 micromolar)	+ (A (+) in the table indicates that the compound showed tumor cell killing activity at a concentration of less than 20 micromolar)
(E)-2,4,6-Trimethoxystyryl-N-[(3-amino)-4-methoxyphenyl]-sulfonamide-L-lysineamide hydrochloride [Example 3]	+ (A (+) in the table indicates that the compound showed tumor cell killing activity at a concentration of less than 20 micromolar)	+ (A (+) in the table indicates that the compound showed tumor cell killing activity at a concentration of less than 20 micromolar)	+ (A (+) in the table indicates that the compound showed tumor cell killing activity at a concentration of less than 20 micromolar)	+ (A (+) in the table indicates that the compound showed tumor cell killing activity at a concentration of less than 20 micromolar)
COc1cc(OC)c(/C=C/S(=O)(=O)Nc2ccc(OC)c(NCC(=O)O)c2)c(OC)c1 [Example 5, (E)-2,4,6-Trimethoxystyryl-N-[(3-carboxymethylamino)-4-methoxyphenyl]sulfonamide]	+ (A (+) in the table indicates that the compound showed tumor cell killing activity at a concentration of less than 20 micromolar)	+ (A (+) in the table indicates that the compound showed tumor cell killing activity at a concentration of less than 20 micromolar)	+ (A (+) in the table indicates that the compound showed tumor cell killing activity at a concentration of less than 20 micromolar)	+ (A (+) in the table indicates that the compound showed tumor cell killing activity at a concentration of less than 20 micromolar)
COc1cc(OC)c(/C=C/S(=O)(=O)Nc2ccc(OC)c(NCC(=O)N(C)C)c2)c(OC)c1 [Example 1, (E)-2,4,6-Trimethoxystyryl-N-[(3-N,N-dimethylacetamido)-4-methoxyphenyl]sulfonamide]	+ (A (+) in the table indicates that the compound showed tumor cell killing activity at a concentration of less than 20 micromolar)	+ (A (+) in the table indicates that the compound showed tumor cell killing activity at a concentration of less than 20 micromolar)	+ (A (+) in the table indicates that the compound showed tumor cell killing activity at a concentration of less than 20 micromolar)	+ (A (+) in the table indicates that the compound showed tumor cell killing activity at a concentration of less than 20 micromolar)
COc1cc(OC)c(/C=C/S(=O)(=O)Nc2ccc(OC)c(NC(=O)CO)c2)c(OC)c1 [Example 6, (E)-2,4,6-Trimethoxystyryl-N-[(3-hydroxyacetamido)-4-methoxy-phenyl]sulfonamide]	+ (A (+) in the table indicates that the compound showed tumor cell killing activity at a concentration of less than 20 micromolar)	+ (A (+) in the table indicates that the compound showed tumor cell killing activity at a concentration of less than 20 micromolar)	+ (A (+) in the table indicates that the compound showed tumor cell killing activity at a concentration of less than 20 micromolar)	+ (A (+) in the table indicates that the compound showed tumor cell killing activity at a concentration of less than 20 micromolar)
COc1cc(OC)c(/C=C/S(=O)(=O)Nc2ccc(OC)c(NC(=O)COC(C)=O)c2)c(OC)c1 [Example 4, (E)-2,4,6-Trimethoxystyryl-N-[(3-acetoxyacetamido)-4-methoxy-phenyl]sulfonamide]	+ (A (+) in the table indicates that the compound showed tumor cell killing activity at a concentration of less than 20 micromolar)	+ (A (+) in the table indicates that the compound showed tumor cell killing activity at a concentration of less than 20 micromolar)	+ (A (+) in the table indicates that the compound showed tumor cell killing activity at a concentration of less than 20 micromolar)	+ (A (+) in the table indicates that the compound showed tumor cell killing activity at a concentration of less than 20 micromolar)
